Several values for one entry are separate records, joined by “and”; a condition that tells them apart may be missing. Equal values may be shown once. Read-outs that look alike come from different tables or passages of the source.
Columns and labels:
in vitro [1] = conditions: human, % cell viability, HCT-8, 0.046 µM, 72 h
in vitro [2] = conditions: human, % cell viability, HEp-2, 3.704 µM, 72 h
[3] = tested on: SARS-CoV-2 (WA1/2020 and VOC α, β, γ); assay: microbe, parasite or virus in culture; assay type: cell-based; conditions: Severe acute respiratory syndrome coronavirus 2, Vero C1008; read-out: Half-maximal effective concentrations (EC50), range
[4] = Cytotoxicity assay (PrestoBlue), HEp-2; conditions: human, HEp-2 cells
[5] = Cytotoxicity assay (PrestoBlue), “M2” HAE; conditions: human
[6] = tested on: SARS-CoV-2 SA/2020 (β, lineage B.1.351); assay: microbe, parasite or virus in culture; assay type: cell-based; conditions: Severe acute respiratory syndrome coronavirus 2, Vero C1008; SA/2020, VeroE6, mean n=3
[7] = Single-dose plasma pharmacokinetics in ferrets; conditions: ferret, GS-441524 IV 20 mg/kg, 20 mg/kg
[8] = tested on: SARS-CoV-2-Nluc (WA1/2020-nano luciferase); assay: microbe, parasite or virus in culture; assay type: cell-based
in vitro [9] = conditions: human
“M6” primary HAE cells = assay: Cytotoxicity assay (PrestoBlue), “M6” HAE; conditions: M6 HAE, 72 h
[10] = Cytotoxicity assay (PrestoBlue), “M6” HAE; conditions: human
[11] = Cytotoxicity assay (PrestoBlue), “F3” HAE; conditions: human
“F3” primary HAE cells = assay: Cytotoxicity assay (PrestoBlue), “F3” HAE; conditions: F3 HAE, 72 h
[12] = Cytotoxicity assay (PrestoBlue), HCT-8; conditions: human, HCT-8 cells
[13] = tested on: SARS-CoV-2 WA1/2020 (lineage A); assay: microbe, parasite or virus in culture; assay type: cell-based
[14] = tested on: SARS-CoV-2 gamma isolate (BZ/2021, lineage P.1); assay: microbe, parasite or virus in culture; assay type: cell-based; conditions: Severe acute respiratory syndrome coronavirus 2
[15] = several species; cited from earlier work
[16] = Cytotoxicity assay (PrestoBlue), BHK-21; conditions: hamster, BHK-21 cells
VeroE6 cells = assay: Cytotoxicity assay (PrestoBlue), VeroE6; conditions: 72 h
[17] = Cytotoxicity assay (PrestoBlue), VeroE6; conditions: African green monkey, VeroE6 cells
in vitro [18] = conditions: human; remark: listed apart in the source
[19] = set-up: method as in Mackman et al 2021 (JMC 2021, 64(8), 5001-5017); conditions: cynomolgus macaques, ref Mackman et al 2021 (JMC 2021, 64(8), 5001-5017); cited from earlier work
[20] = set-up: method as in Mackman et al 2021 (JMC 2021, 64(8), 5001-5017); conditions: rats, ref Mackman et al 2021 (JMC 2021, 64(8), 5001-5017); cited from earlier work
[21] = tested on: well-differentiated primary human airway epithelium cultures; assay type: cell-based
[22] = tested on: SARS-CoV-2 BZ/2021 (γ, lineage P.1); assay: microbe, parasite or virus in culture; assay type: cell-based; conditions: Severe acute respiratory syndrome coronavirus 2, Vero C1008; BZ/2021, VeroE6, mean n=3
[23] = tested on: SARS-CoV-2 CA/2020 (α, lineage B.1.1.7); assay: microbe, parasite or virus in culture; assay type: cell-based; conditions: Severe acute respiratory syndrome coronavirus 2, Vero C1008; CA/2020, VeroE6, mean n=3

N#C[C@@]1(c2ccc3c(N)ncnn23)O[C@H](CO)[C@@H](O)[C@H]1O [GS-441524]
viability at 72 h, 0.046 µM (in vitro [1]): 88%
viability at 72 h, 3.704 µM (in vitro [2]): 93%
EC50 [3]: 110 to 680 nM
viability at 72 h, 0.046 µM ([4]; % cell viability, HEp-2, 0.046 µM, 72 h): 52%
viability at 72 h, 100 µM ([4]; % cell viability, HEp-2, 100 µM, 72 h): 51%
CC50 at 72 h ([4]; CC50, HEp-2, 72 h): > 100000 nM
CC50 at 72 h [5]: > 100000 nM
EC50 [6]: 340 nM
plasma concentration of GS-441524 ([7]; 0.25 h): 40.5 and 46.6 and 24.1
plasma concentration of GS-441524 ([7]; 0.48 h): 62.4 and 57.2 and 43
plasma concentration of GS-441524 ([7]; 0.58 h): 51.5 and 48.2 and 37.8
plasma concentration of GS-441524 ([7]; 4 h): 8.65 and 7.17
plasma concentration of GS-441524 ([7]; 8 h): 2.1 and 1.85 and 1.83
plasma concentration of GS-441524 ([7]; 12 h): 0.669 and 0.467 and 0.448
A549-hACE2 SARS-CoV-2 Nluc (EC50 determination), normalized signal ([8]; Conc 0.005 µM, replicate values of the experiments): 114.03
A549-hACE2 SARS-CoV-2 Nluc (EC50 determination), normalized signal ([8]; Conc 0.02 µM, replicate values of Exp 1-6): 66.74 and 93.22 and 117.07 and 119.81 and 81.21
A549-hACE2 SARS-CoV-2 Nluc (EC50 determination), normalized signal ([8]; Conc 0.07 µM, replicate values of Exp 1-6): 114.55 and 112.96 and 134.59 and 90.75
A549-hACE2 SARS-CoV-2 Nluc (EC50 determination), normalized signal ([8]; Conc 0.21 µM, replicate values of Exp 1-6): 92.40 and 126.15
A549-hACE2 SARS-CoV-2 Nluc (EC50 determination), normalized signal ([8]; Conc 3.333 µM, replicate values of the experiments): 14.96 and 23.34 and 25.42
A549-hACE2 SARS-CoV-2 Nluc (EC50 determination), normalized signal ([8]; Conc 5.56 µM, replicate values of Exp 1-6): 3.54 and 6.01 and 4.94 and 3.43 and 3.57 and 2.25 and 0.47 and 0.46 and 0.35 and 0.41 and 5.69
A549-hACE2 SARS-CoV-2 Nluc (EC50 determination), normalized signal ([8]; Conc 10.000 µM, replicate values of the experiments): 0.35 and 0.30 and 0.32 and 0.31
A549-hACE2 SARS-CoV-2 Nluc (EC50 determination), normalized signal ([8]; Conc 16.67 µM, replicate values of Exp 1-6): 1.67 and 0.36 (2×) and 0.34 and 1.12 and 1.72 and 1.07 and 0.18 (2×) and 0.21 and 0.23 and 0.31
A549-hACE2 SARS-CoV-2 Nluc (EC50 determination), normalized signal ([8]; Conc 50.00 µM, replicate values of Exp 1-6): 0.89 and 0.17 (2×) and 0.16 (3×) and 0.55 and 0.87 and 0.59 and 0.19 and 0.20 and 0.18
EC50 ([8]; Severe acute respiratory syndrome coronavirus 2, WA1/2020-nano luciferase, A549-ACE2, mean ± SD): 1400 ± 900 nM
CC50 at 48 h (in vitro [9]): > 50000 nM
% cell viability (“M6” primary HAE cells; 0.046 µM): 87%
% cell viability (“M6” primary HAE cells; 3.704 µM): 86%
CC50 at 72 h [10]: > 100000 nM
viability at 72 h, 0.046 µM ([11]; female, “F3” primary human airway epithelial (HAE) cells, % cell viability, F3 HAE, 0.046 µM): 87%
viability at 72 h, 100 µM ([11]; % cell viability, F3 HAE, 100 µM): 84%
CC50 at 72 h ([11]; CC50, “F3” HAE): > 100000 nM
% cell viability (“F3” primary HAE cells; 0.046 µM): 90%
% cell viability (“F3” primary HAE cells; 100 µM): 86% and 74%
viability at 72 h, 0.046 µM ([12]; % cell viability, HCT-8, 0.046 µM, 72 h): 74%
viability at 72 h, 1.235 µM ([12]; % cell viability, HCT-8, 1.235 µM, 72 h): 89%
viability at 72 h, 100 µM ([12]; % cell viability, HCT-8, 100 µM, 72 h): 62%
CC50 at 72 h ([12]; CC50, HCT-8, 72 h): > 100000 nM
EC50 ([13]; Severe acute respiratory syndrome coronavirus 2, Vero C1008, WA1/2020, VeroE6, mean n=3): 680 nM
Virus yield reduction ([13]; WA1/2020, VeroE6, 5.55556 µM, vehicle = 0): -3.43
EC50 [14]: 2830 nM
oral bioavailability (in words) [15]: poor oral bioavailability
CC50 at 72 h [16]: > 100000 nM
viability at 72 h, 0.046 µM ([16]; % cell viability, BHK-21, 0.046 µM, 72 h): 64%
viability at 72 h, 1.235 µM ([16]; % cell viability, BHK-21, 1.235 µM, 72 h): 87%
% cell viability (VeroE6 cells; VeroE6, 0.046 µM, 0.046 µM): 56% and 59%
% cell viability (VeroE6 cells; VeroE6, 1.235 µM, 1.235 µM): 91% and 82%
% cell viability (VeroE6 cells; VeroE6, 3.704 µM, 3.704 µM): 92%
% cell viability (VeroE6 cells; VeroE6, 100 µM, 100 µM): 59%
CC50 at 72 h [17]: > 100000 nM
viability at 72 h, 0.046 µM ([17]; % cell viability, VeroE6, 0.046 µM, 72 h): 60%
viability at 72 h, 1.235 µM ([17]; % cell viability, VeroE6, 1.235 µM, 72 h): 75%
viability at 72 h, 3.704 µM ([17]; % cell viability, VeroE6, 3.704 µM, 72 h): 84%
viability at 72 h, 100 µM ([17]; % cell viability, VeroE6, 100 µM, 72 h): 66%
viability at 72 h, 3.704 µM (in vitro [18]; female, % cell viability): 90%
CC50 at 72 h (in vitro [18]): > 100000 nM
viability at 72 h, 100 µM (in vitro [18]; % cell viability): 62%
oral F [19]: 3.4%
oral F [20]: 12%
basolateral drug concentration at which epithelium integrity (TEER) was fully preserved [21]: ≥ 3 µM
EC50 [22]: 550 nM
EC50 [23]: 110 nM

Source: paper PMC8571282 (Nature Communications, 2021)
